Results from the kinase profiling compilation of Christmann-Franck et al. (2016).

Tests used:
Assay in all cases: KINOMEscan competition binding
Conditions in all cases: compound 10.0 µM
FGFR3 (human) = FGFR3 (human) (UniProt P22607)
AURKC (human) = AURKC (human) (UniProt Q9UQB9)
CAMKK1 (human) = CAMKK1 (human) (UniProt Q8N5S9)
DCLK2 (human) = DCLK2 (human) (UniProt Q8N568)
CSNK2A1 (human) = CSNK2A1 (human) (UniProt P68400)
BLK (human) = BLK (human) (UniProt P51451)
STK24 (human) = STK24 (human) (UniProt Q9Y6E0)
GSK3B (human) = GSK3B (human) (UniProt P49841)
[1] = test system: FLT3 (human), P36888 [ITD]
MERTK (human) = MERTK (human) (UniProt Q12866)
TYRO3 (human) = TYRO3 (human) (UniProt Q06418)
AKT3 (human) = AKT3 (human) (UniProt Q9Y243)
CDC42BPB (human) = CDC42BPB (human) (UniProt Q9Y5S2)
PRKCD (human) = PRKCD (human) (UniProt Q05655)
STK33 (human) = STK33 (human) (UniProt Q9BYT3)
MARK3 (human) = MARK3 (human) (UniProt P27448)
RPS6KA6 KD1 (human) = RPS6KA6 KD1 (human) (UniProt Q9UK32)
PRKG2 (human) = PRKG2 (human) (UniProt Q13237)
PAK2 (human) = PAK2 (human) (UniProt Q13177)
IGF1R (human) = IGF1R (human) (UniProt P08069)
NUAK1 (human) = NUAK1 (human) (UniProt O60285)
NTRK3 (human) = NTRK3 (human) (UniProt Q16288)
PKN2 (human) = PKN2 (human) (UniProt Q16513)
MARK2 (human) = MARK2 (human) (UniProt Q7KZI7)
BRSK2 (human) = BRSK2 (human) (UniProt Q8IWQ3)
RAF1 (human) = RAF1 (human) (UniProt P04049)
ROCK2 (human) = ROCK2 (human) (UniProt O75116)
MAPKAPK5 (human) = MAPKAPK5 (human) (UniProt Q8IW41)
PDPK1 (human) = PDPK1 (human) (UniProt O15530)
CSK (human) = CSK (human) (UniProt P41240)
BMPR2 (human) = BMPR2 (human) (UniProt Q13873)
DCLK3 (human) = DCLK3 (human) (UniProt Q9C098)
ERBB4 (human) = ERBB4 (human) (UniProt Q15303)
[2] = target: JAK3 JH1 catalytic (human) (UniProt P52333)
MAP4K4 (human) = MAP4K4 (human) (UniProt O95819)
LIMK1 (human) = LIMK1 (human) (UniProt P53667)
RPS6KA2 KD1 (human) = RPS6KA2 KD1 (human) (UniProt Q15349)
CAMKK2 (human) = CAMKK2 (human) (UniProt Q96RR4)
[3] = target: JAK1 JH1 catalytic (human) (UniProt P23458)
IKBKB (human) = IKBKB (human) (UniProt O14920)

JAK1 JH1 catalytic (human), sequence (P23458 whole entry, looked up): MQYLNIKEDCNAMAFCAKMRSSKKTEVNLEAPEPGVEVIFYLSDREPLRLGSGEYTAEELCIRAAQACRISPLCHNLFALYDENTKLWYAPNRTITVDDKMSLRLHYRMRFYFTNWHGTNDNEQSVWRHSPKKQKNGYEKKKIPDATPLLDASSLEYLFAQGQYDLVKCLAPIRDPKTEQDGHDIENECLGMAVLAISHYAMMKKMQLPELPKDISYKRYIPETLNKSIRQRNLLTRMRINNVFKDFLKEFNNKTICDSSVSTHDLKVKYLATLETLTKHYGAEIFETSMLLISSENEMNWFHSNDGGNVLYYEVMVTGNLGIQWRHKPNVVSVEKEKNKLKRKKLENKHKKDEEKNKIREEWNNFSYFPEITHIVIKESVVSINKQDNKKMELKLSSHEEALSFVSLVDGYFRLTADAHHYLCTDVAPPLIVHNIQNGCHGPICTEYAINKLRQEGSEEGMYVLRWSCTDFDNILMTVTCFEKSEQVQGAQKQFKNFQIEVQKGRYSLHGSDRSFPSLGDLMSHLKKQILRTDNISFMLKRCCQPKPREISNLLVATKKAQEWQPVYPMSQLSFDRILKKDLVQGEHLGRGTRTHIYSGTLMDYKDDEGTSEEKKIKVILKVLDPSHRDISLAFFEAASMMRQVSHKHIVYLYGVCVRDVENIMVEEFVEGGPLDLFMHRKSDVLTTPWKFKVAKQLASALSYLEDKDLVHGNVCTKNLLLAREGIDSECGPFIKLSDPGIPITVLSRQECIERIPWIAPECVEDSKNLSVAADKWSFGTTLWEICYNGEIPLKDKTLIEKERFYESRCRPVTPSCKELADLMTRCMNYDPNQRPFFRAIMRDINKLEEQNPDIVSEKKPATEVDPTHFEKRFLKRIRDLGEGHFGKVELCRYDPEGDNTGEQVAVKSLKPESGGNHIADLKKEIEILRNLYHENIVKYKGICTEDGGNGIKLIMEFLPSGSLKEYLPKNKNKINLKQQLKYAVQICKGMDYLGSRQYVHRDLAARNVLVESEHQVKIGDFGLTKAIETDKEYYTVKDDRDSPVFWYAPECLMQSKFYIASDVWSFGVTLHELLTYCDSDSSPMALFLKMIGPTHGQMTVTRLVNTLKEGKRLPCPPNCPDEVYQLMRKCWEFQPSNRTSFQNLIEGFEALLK
NTRK3 (human), sequence (Q16288 whole entry, looked up): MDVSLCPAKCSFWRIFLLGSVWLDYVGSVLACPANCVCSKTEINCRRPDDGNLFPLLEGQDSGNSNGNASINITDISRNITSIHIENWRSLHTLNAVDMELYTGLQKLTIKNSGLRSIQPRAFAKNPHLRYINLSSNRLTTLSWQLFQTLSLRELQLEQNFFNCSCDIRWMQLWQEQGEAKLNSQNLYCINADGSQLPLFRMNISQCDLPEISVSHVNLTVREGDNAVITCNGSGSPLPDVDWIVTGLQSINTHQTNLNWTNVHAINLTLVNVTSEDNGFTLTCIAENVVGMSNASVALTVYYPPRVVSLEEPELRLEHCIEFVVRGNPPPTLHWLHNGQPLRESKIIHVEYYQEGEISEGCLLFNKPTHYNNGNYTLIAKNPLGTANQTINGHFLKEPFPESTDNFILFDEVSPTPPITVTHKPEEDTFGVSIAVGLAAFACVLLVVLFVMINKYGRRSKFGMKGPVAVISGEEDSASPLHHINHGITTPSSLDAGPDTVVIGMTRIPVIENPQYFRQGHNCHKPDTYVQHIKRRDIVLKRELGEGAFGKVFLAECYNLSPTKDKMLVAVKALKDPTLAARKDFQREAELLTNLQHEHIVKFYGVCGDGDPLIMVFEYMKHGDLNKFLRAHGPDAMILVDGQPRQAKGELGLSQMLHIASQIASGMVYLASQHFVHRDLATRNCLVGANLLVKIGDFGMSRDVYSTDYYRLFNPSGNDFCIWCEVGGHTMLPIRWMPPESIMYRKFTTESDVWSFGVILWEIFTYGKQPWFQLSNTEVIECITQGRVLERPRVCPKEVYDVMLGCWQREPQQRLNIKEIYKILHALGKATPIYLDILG
RPS6KA6 KD1 (human), sequence (Q9UK32 whole entry, looked up): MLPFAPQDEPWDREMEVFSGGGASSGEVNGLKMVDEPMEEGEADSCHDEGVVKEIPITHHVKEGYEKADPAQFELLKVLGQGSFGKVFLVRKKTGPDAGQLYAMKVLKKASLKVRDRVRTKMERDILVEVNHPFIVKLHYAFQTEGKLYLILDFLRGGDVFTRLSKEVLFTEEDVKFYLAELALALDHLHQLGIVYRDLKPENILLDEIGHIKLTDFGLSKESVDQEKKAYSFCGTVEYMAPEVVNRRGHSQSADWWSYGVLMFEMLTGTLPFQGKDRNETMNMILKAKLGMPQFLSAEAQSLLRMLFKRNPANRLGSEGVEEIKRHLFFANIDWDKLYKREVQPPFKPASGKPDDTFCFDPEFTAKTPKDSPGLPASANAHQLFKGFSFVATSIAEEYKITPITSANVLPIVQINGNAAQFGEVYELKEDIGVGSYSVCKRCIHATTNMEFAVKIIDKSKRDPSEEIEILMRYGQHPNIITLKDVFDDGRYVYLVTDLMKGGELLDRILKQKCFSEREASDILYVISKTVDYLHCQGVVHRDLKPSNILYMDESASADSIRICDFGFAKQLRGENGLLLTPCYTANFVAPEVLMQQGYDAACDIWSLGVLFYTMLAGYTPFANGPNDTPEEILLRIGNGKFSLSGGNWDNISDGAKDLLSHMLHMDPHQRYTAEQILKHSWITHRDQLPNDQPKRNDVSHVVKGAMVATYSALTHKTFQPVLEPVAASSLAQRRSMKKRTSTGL
CSNK2A1 (human), sequence (P68400 whole entry, looked up): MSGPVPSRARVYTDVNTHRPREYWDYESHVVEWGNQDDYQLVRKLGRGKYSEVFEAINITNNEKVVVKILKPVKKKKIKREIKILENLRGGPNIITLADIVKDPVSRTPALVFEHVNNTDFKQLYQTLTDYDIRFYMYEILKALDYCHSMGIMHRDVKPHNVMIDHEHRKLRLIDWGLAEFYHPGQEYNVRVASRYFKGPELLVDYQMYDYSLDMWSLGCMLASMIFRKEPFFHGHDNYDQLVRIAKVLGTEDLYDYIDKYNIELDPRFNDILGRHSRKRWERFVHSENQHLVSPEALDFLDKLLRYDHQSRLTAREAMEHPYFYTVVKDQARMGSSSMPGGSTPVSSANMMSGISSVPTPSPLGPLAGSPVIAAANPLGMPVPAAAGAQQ
MAP4K4 (human), sequence (O95819 whole entry, looked up): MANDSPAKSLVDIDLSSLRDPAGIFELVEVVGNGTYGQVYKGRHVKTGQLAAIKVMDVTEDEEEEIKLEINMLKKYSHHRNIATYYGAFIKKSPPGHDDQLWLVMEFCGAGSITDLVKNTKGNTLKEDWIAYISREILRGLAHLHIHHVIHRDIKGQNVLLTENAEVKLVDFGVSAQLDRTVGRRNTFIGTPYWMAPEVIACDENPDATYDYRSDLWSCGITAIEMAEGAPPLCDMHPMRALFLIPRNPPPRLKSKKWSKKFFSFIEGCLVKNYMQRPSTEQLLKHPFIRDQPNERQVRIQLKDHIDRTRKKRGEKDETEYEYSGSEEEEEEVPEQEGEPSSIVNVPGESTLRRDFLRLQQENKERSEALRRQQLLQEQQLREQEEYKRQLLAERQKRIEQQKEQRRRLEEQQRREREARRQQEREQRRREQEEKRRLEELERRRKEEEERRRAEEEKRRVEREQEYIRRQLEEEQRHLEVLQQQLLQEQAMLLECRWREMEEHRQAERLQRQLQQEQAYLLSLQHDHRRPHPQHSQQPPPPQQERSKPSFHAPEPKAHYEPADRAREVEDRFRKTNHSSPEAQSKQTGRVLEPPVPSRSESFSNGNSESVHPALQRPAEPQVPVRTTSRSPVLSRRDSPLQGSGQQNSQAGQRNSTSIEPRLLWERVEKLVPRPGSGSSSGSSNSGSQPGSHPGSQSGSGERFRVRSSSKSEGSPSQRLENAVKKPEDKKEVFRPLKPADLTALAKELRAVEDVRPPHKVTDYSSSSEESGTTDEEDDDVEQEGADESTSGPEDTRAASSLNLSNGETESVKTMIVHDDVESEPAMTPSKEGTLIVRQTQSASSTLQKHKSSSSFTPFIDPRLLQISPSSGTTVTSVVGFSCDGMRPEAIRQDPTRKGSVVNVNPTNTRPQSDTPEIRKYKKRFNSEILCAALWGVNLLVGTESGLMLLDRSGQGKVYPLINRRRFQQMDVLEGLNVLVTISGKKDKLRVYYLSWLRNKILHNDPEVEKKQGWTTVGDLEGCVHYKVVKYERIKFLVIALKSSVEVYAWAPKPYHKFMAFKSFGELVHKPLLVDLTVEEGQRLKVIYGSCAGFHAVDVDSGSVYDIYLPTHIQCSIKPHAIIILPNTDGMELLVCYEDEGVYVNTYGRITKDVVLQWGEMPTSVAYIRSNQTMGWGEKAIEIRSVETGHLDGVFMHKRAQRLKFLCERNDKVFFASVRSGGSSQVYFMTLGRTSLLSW
CAMKK2 (human), sequence (Q96RR4 whole entry, looked up): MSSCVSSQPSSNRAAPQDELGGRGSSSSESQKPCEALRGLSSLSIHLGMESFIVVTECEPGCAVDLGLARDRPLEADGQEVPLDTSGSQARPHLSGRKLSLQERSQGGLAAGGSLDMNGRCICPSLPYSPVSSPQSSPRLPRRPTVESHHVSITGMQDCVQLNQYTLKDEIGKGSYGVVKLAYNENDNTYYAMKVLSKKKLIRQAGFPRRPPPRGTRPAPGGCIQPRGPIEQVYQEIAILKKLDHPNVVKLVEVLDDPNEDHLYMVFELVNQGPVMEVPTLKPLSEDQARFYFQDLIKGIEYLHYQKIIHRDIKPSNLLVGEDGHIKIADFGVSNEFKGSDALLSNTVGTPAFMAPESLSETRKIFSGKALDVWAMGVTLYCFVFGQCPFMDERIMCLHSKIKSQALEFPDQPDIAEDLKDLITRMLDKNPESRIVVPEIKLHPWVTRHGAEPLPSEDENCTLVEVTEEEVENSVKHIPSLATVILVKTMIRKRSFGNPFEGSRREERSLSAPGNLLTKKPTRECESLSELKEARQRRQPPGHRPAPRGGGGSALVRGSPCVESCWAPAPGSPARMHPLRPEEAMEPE

Row | Structure (SMILES) | kinase still bound, per cent of control (FGFR3 (human)) [%] | kinase still bound, per cent of control (AURKC (human)) [%] | kinase still bound, per cent of control (CAMKK1 (human)) [%] | kinase still bound, per cent of control (DCLK2 (human)) [%] | kinase still bound, per cent of control (CSNK2A1 (human)) [%] | kinase still bound, per cent of control (BLK (human)) [%] | kinase still bound, per cent of control (STK24 (human)) [%] | kinase still bound, per cent of control (GSK3B (human)) [%] | kinase still bound, per cent of control [1] [%] | kinase still bound, per cent of control (MERTK (human)) [%] | kinase still bound, per cent of control (TYRO3 (human)) [%] | kinase still bound, per cent of control (AKT3 (human)) [%] | kinase still bound, per cent of control (CDC42BPB (human)) [%] | kinase still bound, per cent of control (PRKCD (human)) [%] | kinase still bound, per cent of control (STK33 (human)) [%] | kinase still bound, per cent of control (MARK3 (human)) [%] | kinase still bound, per cent of control (RPS6KA6 KD1 (human)) [%] | kinase still bound, per cent of control (PRKG2 (human)) [%] | kinase still bound, per cent of control (PAK2 (human)) [%] | kinase still bound, per cent of control (IGF1R (human)) [%] | further results
1 | O=C1Nc2ccc(I)cc2/C1=C/c1cc(Br)c(O)c(Br)c1 | 84 | 71 | 7.6 | 94 | 4.2 | 41 | 97 | 91 | 33 | 100 | 88 | 100 | 100 | 70 | 94 | 68 | 51 | 83 | 53 | 97 | kinase still bound, per cent of control (NUAK1 (human)): 100%; kinase still bound, per cent of control (NTRK3 (human)): 35%; kinase still bound, per cent of control (PKN2 (human)): 99%; kinase still bound, per cent of control (MARK2 (human)): 44%; kinase still bound, per cent of control (BRSK2 (human)): 100%; kinase still bound, per cent of control (RAF1 (human)): 0.65%; kinase still bound, per cent of control (ROCK2 (human)): 55%; kinase still bound, per cent of control (MAPKAPK5 (human)): 100%; kinase still bound, per cent of control (PDPK1 (human)): 100%; kinase still bound, per cent of control (CSK (human)): 92%; kinase still bound, per cent of control (BMPR2 (human)): 100%; kinase still bound, per cent of control (DCLK3 (human)): 100%; kinase still bound, per cent of control (ERBB4 (human)): 50%; kinase still bound, per cent of control [2]: 14%; kinase still bound, per cent of control (MAP4K4 (human)): 4.2%; kinase still bound, per cent of control (LIMK1 (human)): 100%; kinase still bound, per cent of control (RPS6KA2 KD1 (human)): 58%; kinase still bound, per cent of control (CAMKK2 (human)): 9%; kinase still bound, per cent of control [3]: 100%; kinase still bound, per cent of control (IKBKB (human)): 100%
2 | Cc1ccc(C(=O)Nc2cccc(C(F)(F)F)c2)cc1Nc1cncc(C(N)=O)c1 | 100 | 100 | 100 | 100 | 100 | 100 | 100 | 100 | 100 | 100 | 100 | 100 | 100 | 100 | 100 | 100 | 100 | 100 | 100 | 100 | kinase still bound, per cent of control (NUAK1 (human)): 100%; kinase still bound, per cent of control (NTRK3 (human)): 15%; kinase still bound, per cent of control (PKN2 (human)): 100%; kinase still bound, per cent of control (MARK2 (human)): 100%; kinase still bound, per cent of control (BRSK2 (human)): 100%; kinase still bound, per cent of control (RAF1 (human)): 4.5%; kinase still bound, per cent of control (ROCK2 (human)): 100%; kinase still bound, per cent of control (MAPKAPK5 (human)): 100%; kinase still bound, per cent of control (PDPK1 (human)): 100%; kinase still bound, per cent of control (CSK (human)): 100%; kinase still bound, per cent of control (BMPR2 (human)): 100%; kinase still bound, per cent of control (DCLK3 (human)): 100%; kinase still bound, per cent of control (ERBB4 (human)): 100%; kinase still bound, per cent of control [2]: 100%; kinase still bound, per cent of control (MAP4K4 (human)): 100%; kinase still bound, per cent of control (LIMK1 (human)): 100%; kinase still bound, per cent of control (RPS6KA2 KD1 (human)): 100%; kinase still bound, per cent of control (CAMKK2 (human)): 100%; kinase still bound, per cent of control [3]: 100%; kinase still bound, per cent of control (IKBKB (human)): 100%
